What all share (assay): relative viability (nuclei count vs DMSO), 5 days (fraction); higher = more cells survive
Compound in the assay “BAY61-3606 + Pictilisib”: COC1=C(C=C(C=C1)C2=CC3=NC=CN3C(=N2)NC4=C(C=CC=N4)C(=O)N)OC [BAY61-3606] + CS(=O)(=O)N1CCN(Cc2cc3nc(-c4cccc5[nH]ncc45)nc(N4CCOCC4)c3s2)CC1 [Pictilisib] (partner 1 µM)
In short, it runs like this: (§1)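 One day after seeding in 1536-well plates, lung cancer cell lines were dosed by pin tool. Dosing was either single-drug or a fixed anchor-drug dose plus five library-drug doses (not always all listed) in √10 steps. After 5 days, nuclei were stained in one fix-and-stain step and counted on 4× images, and relative viability is the nuclei count of treated wells over that of vehicle wells, given as the median of duplicate plates.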

Compound in the assay “Doxorubicin + Dasatinib”: COc1cccc2c1C(=O)c1c(O)c3c(c(O)c1C2=O)C[C@@](O)(C(=O)CO)C[C@@H]3O[C@H]1C[C@H](N)[C@H](O)[C@H](C)O1 [Doxorubicin] + Cc1nc(Nc2ncc(C(=O)Nc3c(C)cccc3Cl)s2)cc(N2CCN(CCO)CC2)n1 [Dasatinib] (partner 0.075 µM)
In short, it runs like this: as §1

Compound in the assay “BAY61-3606 + Bortezomib”: COC1=C(C=C(C=C1)C2=CC3=NC=CN3C(=N2)NC4=C(C=CC=N4)C(=O)N)OC [BAY61-3606] + CC(C)C[C@H](NC(=O)[C@H](Cc1ccccc1)NC(=O)c1cnccn1)B(O)O [Bortezomib] (partner 0.002 µM)
In short, it runs like this:
as §1

Compound in the assay “BAY61-3606 + Olaparib”: COC1=C(C=C(C=C1)C2=CC3=NC=CN3C(=N2)NC4=C(C=CC=N4)C(=O)N)OC [BAY61-3606] + O=C(c1cc(Cc2n[nH]c(=O)c3ccccc23)ccc1F)N1CCN(C(=O)C2CC2)CC1 [Olaparib] (partner 8 µM)
Summed up:
as §1

For 201T, the relative viability was determined as 0.716 in the assay with BAY61-3606 + Pictilisib (first compound 0.02 µM); 0.677 with BAY61-3606 + Pictilisib (first compound 0.06325 µM); 0.761 with BAY61-3606 + Pictilisib (first compound 0.2 µM); 0.703 in the assay with BAY61-3606 + Pictilisib (first compound 0.6325 µM); 0.744 in the assay with BAY61-3606 + Pictilisib (first compound 2 µM); 0.537 in the assay with Doxorubicin + Dasatinib (first compound 0.001 µM). In addition, the relative viability in the assay with Doxorubicin + Dasatinib (first compound 0.003162 µM) was 0.636; in the assay with Doxorubicin + Dasatinib (first compound 0.01 µM), 0.561; in the assay with Doxorubicin + Dasatinib (first compound 0.03162 µM), 0.583; in the assay with Doxorubicin + Dasatinib (first compound 0.1 µM), 0.546; with BAY61-3606 + Bortezomib (first compound 0.02 µM) it was 1.03; with BAY61-3606 + Bortezomib (first compound 0.06325 µM), 1.1. Besides, the relative viability is 1.09 with BAY61-3606 + Bortezomib (first compound 0.2 µM); 1.13 with BAY61-3606 + Bortezomib (first compound 0.6325 µM); 1.09 in the assay with BAY61-3606 + Bortezomib (first compound 2 µM); 0.833 in the assay with BAY61-3606 + Olaparib (first compound 0.02 µM); 0.842 in the assay with BAY61-3606 + Olaparib (first compound 0.06325 µM); 0.865 with BAY61-3606 + Olaparib (first compound 0.2 µM). Moreover, the relative viability with BAY61-3606 + Olaparib (first compound 0.6325 µM) amounted to 0.838; with BAY61-3606 + Olaparib (first compound 2 µM), 0.824.

NCI-H2405: the relative viability turned out to be 0.623 in the assay with BAY61-3606 + Pictilisib (first compound 0.02 µM); 0.308 in the assay with BAY61-3606 + Pictilisib (first compound 0.06325 µM); 0.379 with BAY61-3606 + Pictilisib (first compound 0.2 µM); 0.371 in the assay with BAY61-3606 + Pictilisib (first compound 0.6325 µM); 0.43 with BAY61-3606 + Pictilisib (first compound 2 µM); 0.187 in the assay with Doxorubicin + Dasatinib (first compound 0.001 µM). In addition, the relative viability in the assay with Doxorubicin + Dasatinib (first compound 0.003162 µM) was determined as 0.208; with Doxorubicin + Dasatinib (first compound 0.01 µM) it was 0.243; with Doxorubicin + Dasatinib (first compound 0.03162 µM), 0.207; with Doxorubicin + Dasatinib (first compound 0.1 µM) it was 0.177; with BAY61-3606 + Bortezomib (first compound 0.02 µM) it was 0.992; with BAY61-3606 + Bortezomib (first compound 0.06325 µM), 0.973. Moreover, the relative viability in the assay with BAY61-3606 + Bortezomib (first compound 0.2 µM) came to 0.961; in the assay with BAY61-3606 + Bortezomib (first compound 0.6325 µM), 0.964; with BAY61-3606 + Bortezomib (first compound 2 µM), 0.942; with BAY61-3606 + Olaparib (first compound 0.02 µM), 0.941; with BAY61-3606 + Olaparib (first compound 0.06325 µM), 0.89; with BAY61-3606 + Olaparib (first compound 0.2 µM), 0.845. For the same cell line, the figures for the relative viability in the assay with BAY61-3606 + Olaparib (first compound 0.6325 µM) and in the assay with BAY61-3606 + Olaparib (first compound 2 µM) were 0.907 and 0.695, respectively.

As for LU99A, the relative viability in the assay with BAY61-3606 + Pictilisib (first compound 0.02 µM) turned out to be 0.343; with BAY61-3606 + Pictilisib (first compound 0.06325 µM), 0.352; in the assay with BAY61-3606 + Pictilisib (first compound 0.2 µM), 0.34; with BAY61-3606 + Pictilisib (first compound 0.6325 µM) it was 0.329; in the assay with BAY61-3606 + Pictilisib (first compound 2 µM), 0.278; with Doxorubicin + Dasatinib (first compound 0.001 µM) it was 0.359. Also, the relative viability with Doxorubicin + Dasatinib (first compound 0.003162 µM) is 0.526; with Doxorubicin + Dasatinib (first compound 0.01 µM), 0.527; with Doxorubicin + Dasatinib (first compound 0.03162 µM) it was 0.422; with Doxorubicin + Dasatinib (first compound 0.1 µM), 0.361; with BAY61-3606 + Bortezomib (first compound 0.02 µM), 1.14; with BAY61-3606 + Bortezomib (first compound 0.06325 µM) it was 1.21. In addition, the relative viability with BAY61-3606 + Bortezomib (first compound 0.2 µM) worked out at 1.18; in the assay with BAY61-3606 + Bortezomib (first compound 0.6325 µM), 1.12; with BAY61-3606 + Bortezomib (first compound 2 µM), 0.709; with BAY61-3606 + Olaparib (first compound 0.02 µM), 0.261; with BAY61-3606 + Olaparib (first compound 0.06325 µM), 0.253; with BAY61-3606 + Olaparib (first compound 0.2 µM) it was 0.241. Moreover, the values for the relative viability with BAY61-3606 + Olaparib (first compound 0.6325 µM) and with BAY61-3606 + Olaparib (first compound 2 µM) were 0.246 and 0.243, respectively.

For LC-2-ad, the relative viability with BAY61-3606 + Pictilisib (first compound 0.02 µM) turned out to be 0.405; in the assay with BAY61-3606 + Pictilisib (first compound 0.06325 µM), 0.429; with BAY61-3606 + Pictilisib (first compound 0.2 µM), 0.29; in the assay with BAY61-3606 + Pictilisib (first compound 0.6325 µM), 0.468; with BAY61-3606 + Pictilisib (first compound 2 µM), 0.235; with Doxorubicin + Dasatinib (first compound 0.001 µM) it was 0.691. Moreover, the relative viability in the assay with Doxorubicin + Dasatinib (first compound 0.003162 µM) was found to be 0.602; in the assay with Doxorubicin + Dasatinib (first compound 0.01 µM), 0.489; with Doxorubicin + Dasatinib (first compound 0.03162 µM), 0.209; with Doxorubicin + Dasatinib (first compound 0.1 µM), 0.161; with BAY61-3606 + Bortezomib (first compound 0.02 µM), 1.02; with BAY61-3606 + Bortezomib (first compound 0.06325 µM) it was 1.1. In addition, the relative viability with BAY61-3606 + Bortezomib (first compound 0.2 µM) amounted to 0.979; in the assay with BAY61-3606 + Bortezomib (first compound 0.6325 µM), 1.08; with BAY61-3606 + Bortezomib (first compound 2 µM), 0.907; with BAY61-3606 + Olaparib (first compound 0.02 µM), 0.703; with BAY61-3606 + Olaparib (first compound 0.06325 µM), 0.701; in the assay with BAY61-3606 + Olaparib (first compound 0.2 µM) it was 0.723. Moreover, the relative viability came out at 0.717 in the assay with BAY61-3606 + Olaparib (first compound 0.6325 µM) and 0.578 with BAY61-3606 + Olaparib (first compound 2 µM).

Regarding NCI-H2087, the relative viability with BAY61-3606 + Pictilisib (first compound 0.02 µM) stood at 1.05; with BAY61-3606 + Pictilisib (first compound 0.06325 µM), 0.937; with BAY61-3606 + Pictilisib (first compound 0.2 µM) it was 0.865; with BAY61-3606 + Pictilisib (first compound 0.6325 µM) it was 0.878; with BAY61-3606 + Pictilisib (first compound 2 µM), 0.666; with Doxorubicin + Dasatinib (first compound 0.003162 µM) it was 0.844. Besides, the relative viability in the assay with Doxorubicin + Dasatinib (first compound 0.01 µM) is 0.769; in the assay with Doxorubicin + Dasatinib (first compound 0.03162 µM), 0.475; in the assay with Doxorubicin + Dasatinib (first compound 0.1 µM) it was 0.222; with BAY61-3606 + Bortezomib (first compound 0.02 µM), 0.908; in the assay with BAY61-3606 + Bortezomib (first compound 0.06325 µM), 0.862; in the assay with BAY61-3606 + Bortezomib (first compound 0.2 µM) it was 0.869. The relative viability with BAY61-3606 + Bortezomib (first compound 0.6325 µM) stood at 0.759; in the assay with BAY61-3606 + Bortezomib (first compound 2 µM) it was 0.746; in the assay with BAY61-3606 + Olaparib (first compound 0.02 µM) it was 0.547; with BAY61-3606 + Olaparib (first compound 0.06325 µM) it was 0.682; with BAY61-3606 + Olaparib (first compound 0.2 µM), 0.489; in the assay with BAY61-3606 + Olaparib (first compound 0.6325 µM) it was 0.54. Further, the relative viability with BAY61-3606 + Olaparib (first compound 2 µM) stood at 0.448.

Consider COR-L23, for which the relative viability in the assay with BAY61-3606 + Pictilisib (first compound 0.02 µM) was 0.933; with BAY61-3606 + Pictilisib (first compound 0.06325 µM) it was 0.871; with BAY61-3606 + Pictilisib (first compound 0.2 µM), 0.866; with BAY61-3606 + Pictilisib (first compound 0.6325 µM) it was 0.871; in the assay with BAY61-3606 + Pictilisib (first compound 2 µM), 0.449; in the assay with Doxorubicin + Dasatinib (first compound 0.001 µM), 0.466. Besides, the relative viability with Doxorubicin + Dasatinib (first compound 0.003162 µM) was found to be 0.629; in the assay with Doxorubicin + Dasatinib (first compound 0.01 µM) it was 0.486; with Doxorubicin + Dasatinib (first compound 0.03162 µM), 0.27; with Doxorubicin + Dasatinib (first compound 0.1 µM) it was 0.128; with BAY61-3606 + Bortezomib (first compound 0.02 µM), 1.06; with BAY61-3606 + Bortezomib (first compound 0.06325 µM) it was 1.12. The relative viability with BAY61-3606 + Bortezomib (first compound 0.2 µM) was 0.934; with BAY61-3606 + Bortezomib (first compound 0.6325 µM), 0.962; with BAY61-3606 + Bortezomib (first compound 2 µM), 0.714; with BAY61-3606 + Olaparib (first compound 0.02 µM) it was 0.343; in the assay with BAY61-3606 + Olaparib (first compound 0.06325 µM), 0.356; with BAY61-3606 + Olaparib (first compound 0.2 µM) it was 0.411. In addition, the relative viability with BAY61-3606 + Olaparib (first compound 0.6325 µM) is 0.353; with BAY61-3606 + Olaparib (first compound 2 µM), 0.269.

Consider BEN, for which the relative viability with BAY61-3606 + Pictilisib (first compound 0.02 µM) was 0.71; in the assay with BAY61-3606 + Pictilisib (first compound 0.06325 µM) it was 0.476; with BAY61-3606 + Pictilisib (first compound 0.2 µM), 0.6; in the assay with BAY61-3606 + Pictilisib (first compound 0.6325 µM), 0.655; with BAY61-3606 + Pictilisib (first compound 2 µM), 0.599; with Doxorubicin + Dasatinib (first compound 0.001 µM), 0.366. Besides, the relative viability turned out to be 0.296 with Doxorubicin + Dasatinib (first compound 0.003162 µM); 0.329 with Doxorubicin + Dasatinib (first compound 0.01 µM); 0.294 in the assay with Doxorubicin + Dasatinib (first compound 0.03162 µM); 0.418 with Doxorubicin + Dasatinib (first compound 0.1 µM); 0.99 in the assay with BAY61-3606 + Bortezomib (first compound 0.02 µM); 0.829 in the assay with BAY61-3606 + Bortezomib (first compound 0.06325 µM). Further, the relative viability with BAY61-3606 + Bortezomib (first compound 0.2 µM) worked out at 0.764; with BAY61-3606 + Bortezomib (first compound 0.6325 µM), 0.799; in the assay with BAY61-3606 + Bortezomib (first compound 2 µM) it was 0.931; with BAY61-3606 + Olaparib (first compound 0.02 µM), 1.2; in the assay with BAY61-3606 + Olaparib (first compound 0.06325 µM), 0.865; in the assay with BAY61-3606 + Olaparib (first compound 0.2 µM), 1.16. Also, the figures for the relative viability in the assay with BAY61-3606 + Olaparib (first compound 0.6325 µM) and with BAY61-3606 + Olaparib (first compound 2 µM) were 1.29 and 0.972, respectively.

The record behind these values is the supplement of paper PMC10307832.
